The experiment deals with T1, APOL1 (Homo sapiens, UniProt O14791).
T1 sequence (O14791 1-398 S342G/I384M): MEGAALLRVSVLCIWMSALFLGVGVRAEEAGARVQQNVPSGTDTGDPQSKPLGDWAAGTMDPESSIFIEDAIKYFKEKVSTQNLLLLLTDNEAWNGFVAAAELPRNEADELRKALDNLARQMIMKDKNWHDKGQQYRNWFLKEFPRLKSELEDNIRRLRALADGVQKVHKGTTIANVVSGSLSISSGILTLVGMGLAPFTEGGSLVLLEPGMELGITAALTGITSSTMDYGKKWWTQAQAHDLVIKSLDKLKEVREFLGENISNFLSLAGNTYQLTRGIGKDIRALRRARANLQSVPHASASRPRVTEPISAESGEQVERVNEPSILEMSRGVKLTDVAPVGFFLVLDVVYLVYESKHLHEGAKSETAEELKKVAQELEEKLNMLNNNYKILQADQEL
The experiment can be described thus: MultiTox-Fluor Multiplex Cytotoxicity Assay in tet-inducible APOL1 T-REx-HEK293 cells (cell rescue, ratio of dead to live cells). The class given is cell-based. Particulars: tet-inducible transgenic APOL1 T-REx-HEK293 cell lines, 50 ng/mL tet, 24 hours; read-out: IP50 (i.e., IC50 for cell proliferation). The procedure, abridged: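 T-REx-HEK293 cells with tet-inducible APOL1 were treated with compound (10 μM top, 10-point 3-fold dilution, duplicate) plus 50 ng/mL tetracycline for 24 h at 37° C, in DMEM with 2% tet-free FBS. MultiTox-Fluor protease signals gave a dead/live ratio, normalized to no tet (100% viability) and tet alone (0%).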

`CCc1cc2c(s1)CCO[C@@]21CCN(Cc2cn([C@H]3CS(=O)(=O)C[C@H]3O)nn2)[C@@H](C)C1` [Compound 62]: the IC50 was below 100 nM.

On to `CCc1cc2c(s1)CCO[C@@]21CCN(Cc2cn(CC(=O)N3CCCC3)nn2)[C@@H](C)C1` [Compound 63], for which the IC50 is below 100 nM.

In the case of `CCc1cc2c(s1)CCO[C@@]21CCN(Cc2cn(Cc3cc(C)n[nH]3)nn2)[C@@H](C)C1` [Compound 64], the IC50 is below 100 nM.

Turning to `CCc1cc2c(s1)CCO[C@@]21CCN(Cc2cn(Cc3nnc[nH]3)nn2)[C@@H](C)C1` [Compound 65], the IC50 lay in the range of 100 to 500 nM.

For the compound `CCc1cc2c(s1)CCO[C@@]21CCN(Cc2cn(Cc3c(C)cc(C)nc3O)nn2)[C@@H](C)C1` [Compound 66], the IC50 is 100 to 500 nM.

`CCc1cc2c(s1)CCO[C@@]21CCN(Cc2cn(CCc3ncn[nH]3)nn2)[C@@H](C)C1` [Compound 67]: the IC50 was below 100 nM.

Turning to `CCc1cc2c(s1)CCO[C@@]21CCN(Cc2cn(CCn3ccnc3C)nn2)[C@@H](C)C1` [Compound 68], the IC50 lay in the range of 100 to 500 nM.

On to `CCc1cc2c(s1)CCO[C@@]21CCN(Cc2cn(CC(O)c3nccn3C)nn2)[C@@H](C)C1` (stereo partly drawn) [Compound 69], for which the IC50 is below 100 nM.

As to `CCc1cc2c(s1)CCO[C@@]21CCN(Cc2cn(-c3cnc(C)nc3)nn2)[C@@H](C)C1` [Compound 70], the IC50 is below 100 nM.

Take `CCc1cc2c(s1)CCO[C@@]21CCN(Cc2cn(-c3cncc(F)c3)nn2)[C@@H](C)C1` [Compound 71]: the IC50 is below 100 nM.

Consider `CCc1cc2c(s1)CCO[C@@]21CCN(Cc2cn(-c3cncnc3)nn2)[C@@H](C)C1` [Compound 72], for which the IC50 is below 100 nM.

Take `CCc1cc2c(s1)CCO[C@@]21CCN(Cc2cn(-c3cccnc3)nn2)[C@@H](C)C1` [Compound 73]: the IC50 is below 100 nM.

As for `CCc1cc2c(s1)CCO[C@@]21CCN(Cc2cn(CC3(C(O)C(C)C)CC3)nn2)[C@@H](C)C1` (stereo partly drawn) [Compound 74], the IC50 is 100 to 500 nM.

Turning to `CCOCCOCC(O)Cn1cc(CN2CC[C@]3(C[C@@H]2C)OCCc2sc(CC)cc23)nn1` (stereo partly drawn) [Compound 75], the IC50 is below 100 nM.

Turning to `CCc1cc2c(s1)CCOC21CCN(Cc2cn(CC(O)c3ccccn3)nn2)C(C)C1` (stereo not drawn) [Compound 76], the IC50 was 100 to 500 nM.

In the case of `CCc1cc2c(s1)CCOC21CCN(Cc2cn(CC3(O)CCOC3)nn2)C(C)C1` (stereo not drawn) [Compound 77], the IC50 was 500 to 1000 nM.

As for `CCc1cc2c(s1)CCO[C@@]21CCN(Cc2cn(CC3CCC4(CC3)COC4)nn2)[C@@H](C)C1` [Compound 78], the IC50 was 100 to 500 nM.

Consider `CCc1cc2c(s1)CCO[C@@]21CCN(Cc2cn(CC3(CO)CCOCC3)nn2)[C@@H](C)C1` [Compound 79], for which the IC50 fell in the range of 100 to 500 nM.

For the compound `CCc1cc2c(s1)CCO[C@@]21CCN(Cc2cn(CC(C)(C)CCO)nn2)[C@@H](C)C1` [Compound 80], the IC50 was in the range of 100 to 500 nM.

Regarding `CCc1cc2c(s1)CCO[C@@]21CCN(Cc2cn(CC(=O)NCCO)nn2)[C@@H](C)C1` [Compound 81], the IC50 is 100 to 500 nM.

As to `CCc1cc2c(s1)CCOC21CCN(Cc2cn(CC(C)CO)nn2)C(C)C1` (stereo not drawn) [Compound 82], the IC50 is 100 to 500 nM.

For `CCc1cc2c(s1)CCO[C@@]21CCN(Cc2cn(CC3(CCO)CC3)nn2)[C@@H](C)C1` [Compound 83], the IC50 was in the range of 100 to 500 nM.

Regarding `CCc1cc2c(s1)CCOC21CCN(Cc2cn(CC(C)(O)COC)nn2)C(C)C1` (stereo not drawn) [Compound 84], the IC50 is below 100 nM.

As to `CCCC(O)Cn1cc(CN2CC[C@]3(C[C@@H]2C)OCCc2sc(CC)cc23)nn1` (stereo partly drawn) [Compound 85], the IC50 was below 100 nM.

On to `CCc1cc2c(s1)CCOC21CCN(Cc2cn(CC(O)C3CCOCC3)nn2)C(C)C1` (stereo not drawn) [Compound 86], for which the IC50 was below 100 nM.

As to `CCc1cc2c(s1)CCO[C@@]21CCN(Cc2cn(CC3(OCCO)CCOCC3)nn2)[C@@H](C)C1` [Compound 87], the IC50 was in the range of 100 to 500 nM.

Take `CCc1cc2c(s1)CCOC21CCN(Cc2cn(CC(O)CF)nn2)C(C)C1` (stereo not drawn) [Compound 88]: the IC50 is below 100 nM.

Turning to `CCc1cc2c(s1)CCO[C@@]21CCN(Cc2cn(CC(O)(CO)CO)nn2)[C@@H](C)C1` [Compound 89], the IC50 was below 100 nM.

As for `CCc1cc2c(s1)CCO[C@@]21CCN(Cc2cn(CC(=O)N3CCOCC3)nn2)[C@@H](C)C1` [Compound 90], the IC50 was 100 to 500 nM.

In the case of `CCc1cc2c(s1)CCOC21CCN(Cc2cn(CC(O)CS(C)(=O)=O)nn2)C(C)C1` (stereo not drawn) [Compound 91], the IC50 is below 100 nM.

In the case of `CCc1cc2c(s1)CCOC21CCN(Cc2cn(CC(c3cccnc3)N3CCOCC3)nn2)C(C)C1` (stereo not drawn) [Compound 92], the IC50 fell in the range of 500 to 1000 nM.

In the case of `CCc1cc2c(s1)CCO[C@@]21CCN(Cc2cn(CC(C)(O)c3ccccc3)nn2)[C@@H](C)C1` (stereo partly drawn) [Compound 93], the IC50 was in the range of 500 to 1000 nM.

For the compound `CCc1cc2c(s1)CCO[C@@]21CCN(Cc2cn(CC3(COC)CCOCC3)nn2)[C@@H](C)C1` [Compound 94], the IC50 was in the range of 100 to 500 nM.

For `CCc1cc2c(s1)CCO[C@@]21CCN(Cc2cn(CC3COCCN3)nn2)[C@@H](C)C1` (stereo partly drawn) [Compound 95], the IC50 is below 100 nM.

For `CCc1cc2c(s1)CCO[C@@]21CCN(Cc2cn(CC3CS(=O)(=O)CCO3)nn2)[C@@H](C)C1` (stereo partly drawn) [Compound 96], the IC50 was below 100 nM.

For the compound `CCc1cc2c(s1)CCO[C@@]21CCN(Cc2cn(CC(CC)(CC)OC)nn2)[C@@H](C)C1` [Compound 97], the IC50 was below 100 nM.

On to `CCc1cc2c(s1)CCO[C@@]21CCN(Cc2cn(CC(C)(C)OCCO)nn2)[C@@H](C)C1` [Compound 98], for which the IC50 was 100 to 500 nM.

For `CCc1cc2c(s1)CCO[C@@]21CCN(Cc2cn(CC(O)CN3CCCC3=O)nn2)[C@@H](C)C1` (stereo partly drawn) [Compound 99], the IC50 was below 100 nM.

Regarding `CCc1cc2c(s1)CCO[C@@]21CCN(Cc2cn(CC(C)(C)C3CCOCC3)nn2)[C@@H](C)C1` [Compound 100], the IC50 was 100 to 500 nM.

In the case of `CCc1cc2c(s1)CCOC21CCN(Cc2cn(CC(C)(CO)COC)nn2)C(C)C1` (stereo not drawn) [Compound 101], the IC50 lay within 100 to 500 nM.

On to `CCc1cc2c(s1)CCOC21CCN(Cc2cn(CC3(C)COCCO3)nn2)C(C)C1` (stereo not drawn) [Compound 102], for which the IC50 was below 100 nM.

In the case of `CCc1cc2c(s1)CCO[C@@]21CCN(Cc2cn(CC3(C4(O)CCOCC4)CC3)nn2)[C@@H](C)C1` [Compound 103], the IC50 was in the range of 100 to 500 nM.

On to `CCc1cc2c(s1)CCO[C@@]21CCN(Cc2cn(CC3(OCCO)CCC3)nn2)[C@@H](C)C1` [Compound 104], for which the IC50 lay within 100 to 500 nM.

Turning to `CCc1cc2c(s1)CCO[C@@]21CCN(Cc2cn(CC3(C4CCOCC4)CC3)nn2)[C@@H](C)C1` [Compound 105], the IC50 was 500 to 1000 nM.

Consider `CCc1cc2c(s1)CCO[C@@]21CCN(Cc2cn(CC3(CO)CCOC3)nn2)[C@@H](C)C1` (stereo partly drawn) [Compound 106], for which the IC50 is 100 to 500 nM.

Consider `CCc1cc2c(s1)CCOC21CCN(Cc2cn(CC(CO)C(C)C)nn2)C(C)C1` (stereo not drawn) [Compound 107], for which the IC50 was below 100 nM.

`CCc1cc2c(s1)CCO[C@@]21CCN(Cc2cn(CC(C)COC)nn2)[C@@H](C)C1` (stereo partly drawn) [Compound 108]: the IC50 fell in the range of 100 to 500 nM.

Turning to `CCc1cc2c(s1)CCO[C@@]21CCN(Cc2cn(CC(C)(C)C(C)(C)O)nn2)[C@@H](C)C1` [Compound 109], the IC50 is 100 to 500 nM.

As to `CCc1cc2c(s1)CCO[C@@]21CCN(Cc2cn(CC(C)(CO)OC)nn2)[C@@H](C)C1` (stereo partly drawn) [Compound 110], the IC50 fell in the range of 100 to 500 nM.

With `CCc1cc2c(s1)CCO[C@@]21CCN(Cc2cn(CC(C)(C)C3(O)CCOCC3)nn2)[C@@H](C)C1` [Compound 111], the IC50 is 100 to 500 nM.

In the case of `CCc1cc2c(s1)CCO[C@@]21CCN(Cc2cn(CC(O)Cc3ccc(F)cc3)nn2)[C@@H](C)C1` (stereo partly drawn) [Compound 112], the IC50 was below 100 nM.

Take `CCc1cc2c(s1)CCO[C@@]21CCN(Cc2cn(C[C@H](O)C(C)(C)C)nn2)[C@@H](C)C1` [Compound 113]: the IC50 is below 100 nM.

Take `CCc1cc2c(s1)CCO[C@@]21CCN(Cc2cn(CC3(C)CCOCC3)nn2)[C@@H](C)C1` [Compound 114]: the IC50 fell in the range of 100 to 500 nM.

As to `CCc1cc2c(s1)CCOC21CCN(Cc2cn(CC(CC)CO)nn2)C(C)C1` (stereo not drawn) [Compound 115], the IC50 is below 100 nM.

As for `CCc1cc2c(s1)CCOC21CCN(Cc2cn(CC3CC(=O)N(CCOC)C3)nn2)C(C)C1` (stereo not drawn) [Compound 116], the IC50 fell in the range of 100 to 500 nM.

Consider `CCc1cc2c(s1)CCOC21CCN(Cc2cn(CC(O)C3CCCO3)nn2)C(C)C1` (stereo not drawn) [Compound 117], for which the IC50 is below 100 nM.

Take `CCc1cc2c(s1)CCO[C@@]21CCN(Cc2cn(CC3(C)COC3)nn2)[C@@H](C)C1` [Compound 118]: the IC50 was 100 to 500 nM.

As for `CCc1cc2c(s1)CCOC21CCN(Cc2cn(CC3(OCCO)CCOC3)nn2)C(C)C1` (stereo not drawn) [Compound 119], the IC50 was below 100 nM.

Turning to `CCc1cc2c(s1)CCO[C@@]21CCN(Cc2cn(CC(C)(C)C(C)O)nn2)[C@@H](C)C1` (stereo partly drawn) [Compound 120], the IC50 lay in the range of 100 to 500 nM.

As to `CCc1cc2c(s1)CCO[C@@]21CCN(Cc2cn(CC(CO)CC3CCOCC3)nn2)[C@@H](C)C1` (stereo partly drawn) [Compound 121], the IC50 was below 100 nM.

Consider `CCc1cc2c(s1)CCO[C@@]21CCN(Cc2cn(CC(F)(F)C3(O)CCOCC3)nn2)[C@@H](C)C1` [Compound 122], for which the IC50 lay within 100 to 500 nM.

In the case of `CCc1cc2c(s1)CCOC21CCN(Cc2cn(CC(O)C(C)(C)O)nn2)C(C)C1` (stereo not drawn) [Compound 123], the IC50 is below 100 nM.

In the case of `CCc1cc2c(s1)CCOC21CCN(Cc2cn(CC(O)C(C)(C)O)nn2)C(C)C1` (stereo not drawn) [Compound 124], the IC50 was below 100 nM.
